Reference: patent US10265383B2, “Treatment of radiation injury using ghrelin” (priority 2014, dated 2019)
Where no end group is shown, it is not given here. The star is where a group is joined. Octanoyl = CCCCCCCC(=O)*

Columns and labels:
ICAM-1 = test: Jejunal ICAM-1 mRNA expression by real time PCR; type: in vivo, rat; settings: jejunum, Day 7 after 10 Gy WBI; vehicle increased by 69%
Description: (§1) Animal model of whole body irradiation. Rats were exposed to whole body irradiation (WBI) of 10 Gray (Gy) using a Gammacell® 1000 Irradiator (Atomic Energy of Canada Ltd) [radiation source: Cesium-137 (^137Cs)] delivered at a dose rate of about 2.5 GY/min. The animals were sedated with intra-peritoneal pentobarbital (40 mg/kg BW) prior to irradiation. During radiation, the container rotated continuously in front of the radiation source for even exposure. The animals were then returned to their cages, and food and water were provided.
(§2) Blood and Tissue Collection after WBI. Rats exposed to 10 Gy WBI were treated with 20 nmol/rat human ghrelin once a day for 6 days starting at 24 h after radiation. At the 7th day, rats were euthanized, and blood, liver and the small intestine were removed under sterile conditions. The blood was allowed to clot and following centrifugation, the serum was transferred into pyrogenic free sterile tubes, and stored at −80° C. until further analysis. Liver (0.25 g) was snap-frozen in liquid nitrogen and stored at −80° C. for subsequent bacterial translocation analysis. Small intestine, 10-15 cm of the ileum, was harvested for gut permeability studies, 10 cm of jejunum was collected for histopathology, and the remaining 10 cm jejunal segment each was collected for RNA and protein analyses.
(§3) Total RNA extraction and real time PCR. […]

serum glucose = test: Serum glucose level after WBI; type: in vivo, rat; settings: Day 7 after 10 Gy WBI; WBI reduced it by 30%
Description: as §1
as §2, with “Small intestine, 10-15 cm of the ileum, was harvested for gut permeability studies, 10 cm of jejunum was collected for histopathology, and the remaining 10 cm jejunal segment each was collected for RNA and protein analyses.” left out
Serum glucose and albumin levels. Serum levels of glucose and albumin were determined using Liquid Glucose Hexokinase Reagent Set and Albumin Reagent Set (Pointe Scientific, Inc.) respectively according to manufacturer's instructions.

CD73 = test: Jejunal CD73 mRNA expression by real time PCR; type: in vivo, rat; settings: jejunum, Day 7 after 10 Gy WBI; vehicle decreased by 62%
Description: as §1, §2, §3

[1] = system: rats exposed to 10 Gy WBI; test: Survival study after whole body irradiation (WBI); type: in vivo, rat; settings: 10 Gy WBI rats, 30 day observation, vehicle 30%
Description: Experimental animals. Male Sprague-Dawley (SD) rats (250-350 g) purchased from Charles River Laboratories (Wilmington, Mass., USA) were used. The rats were housed in a temperature-controlled room on a 12-h light/dark cycle and fed on a standard Purina rat chow diet. Animal experimentation was carried out in accordance with the Guide for the Care and Use of Laboratory Animals. This project was approved by the Institutional Animal Care and Use Committee (IACUC) of the Feinstein Institute for Medical Research.
Animal model of whole body irradiation. […]
Survival study. To assess the survival benefits of human ghrelin, animals were exposed to 10 Gy WBI and treated with human ghrelin (20 nmol/rat) subcutaneously once a day, with the first dose given either at 24 h or 48 h after WBI, for 6 days and observed for 30 days, and the survival recorded. […] Rats in the survival study were monitored twice daily and weighed once a day during the 30 day survival period. Net weight change was calculated as: % Weight Change ((weight at each day−weight at day 0)/weight at day 0)×100.
Statistical analysis. All data are expressed as mean±SE and analyzed by one way analysis of variance (ANOVA) and compared using Student Newman Keul's test for multiple comparisons. […]

Liver 16S rRNA = test: Bacterial translocation, liver 16S rRNA real time PCR; type: in vivo; settings: Day 7 after 10 Gy WBI; 20 nmol/rat for 6 days from 24 h
Description: as §1
Blood and Tissue Collection after WBI. Rats exposed to 10 Gy WBI were treated with 20 nmol/rat human ghrelin once a day for 6 days starting at 24 h after radiation. […]
DNA isolation and total bacteria quantification. […] Bacterial quantification was performed using 16S rRNA gene-targeted primer, forward: 5′-AAC GCG AAG AAC CTT AC-3′ (SEQ ID NO:2) and reverse: 5′-CGG TGT GTA CAA GAC CC-3′ (SEQ ID NO:3). […] The PCR conditions for total bacterial quantification were 95° C. for 1 min and 40 cycles of 95° C. for 20 sec and 60° C. for 1 min. […] Serially diluted genomic DNA of bacterial isolates was used as real time PCR control for bacterial quantification. A standard curve was generated from the bacterial DNA control and we consistently detected between 100 ng to 0.1 pg E. coli DNA. Bacterial counts were expressed as ng/mg liver tissue.

With “ghrelin (GSS(Octanoyl)FLSPEHQRVQQRKESKKPPAKLQPR; listed as Homo sapiens) [human ghrelin]” the “ICAM-1 mRNA expression, inhibition from the vehicle levels” value (ICAM-1) was 51%, the serum glucose (serum glucose) was “restored to near Sham levels” and the “CD73 mRNA expression, restored by” value (CD73) was 70%. For the same substance, the survival rate ([1]; 20 nmol/rat s.c. once a day for 6 days starting at 24 h after WBI) was 63%, the survival rate ([1]; 20 nmol/rat s.c. once a day for 6 days, treatment initiated at 48 h after WBI) was 61% and the “liver 16S rRNA gene (bacterial counts), reduction from Vehicle” value (Liver 16S rRNA) was 61%.
